Common to all, as to type: in vitro ADME
Series [1] concerns the target T1, CYP2C9 (Homo sapiens, UniProt P11712).
T1 construct: a human liver microsome solution containing three CYP-specific substrates; from tissue; host or cells: human liver microsomes
Description: CYP inhibition test (2): 50% inhibitory concentration from 3 concentrations, CYP2C9. The conditions noted are these: human liver microsome, diclofenac substrate, 0.01, 0.03 and 0.1 mmol/L, read-out: 50% inhibitory concentration, 2C9. As to the method:
(§1) A metabolic reaction was initiated by adding and mixing a test compound solution (final concentration 0.01, 0.03 and 0.1 mmol/L) and a NADH/NADPH solution (final concentration 1 mmol/L) to a human liver microsome solution containing three CYP-specific substrates (final concentration 100 mmol/L potassium phosphate buffer solution (pH 7.4), 5 mmol/L magnesium chloride, 0.1 mg/mL human liver microsome, 0.005 mmol/L diclofenac (for CYP2C9), 0.01 mmol/L bufuralol (for CYP2D6), 0.005 mmol/L midazolam (for CYP3A4)). As an internal standard solution, a solution of each of stable isotopes of the metabolites (50 ng/mL [13C6] hydroxy diclofenac, 5 ng/mL [2H9] hydroxy bufuralol, and 5 ng/mL [13C6] hydroxy midazolam (all stable isotopes)) in methanol was prepared and used as a quenching solution. Specifically, a metabolic reaction was initiated by adding and mixing 2 μL of a solution of a test compound in acetonitrile (or acetonitrile as a control) to 178 μL of a human liver microsome solution in ice water, followed by preincubation at 37° C. for 1 minute, and then adding 20 μL of a NADH/NADPH solution thereto. After incubation at 37° C. for 10 minutes, 50 μL of the reaction mixture was taken, and then it was added and mixed to 500 μL of a quenching solution to quech the reaction. The mixture was centrifuged (6130 g, 4° C., 10 minutes) and the supernatant was used as a sample for LC-MS/MS. Peak area ratio ([peak area of metabolite]/[peak area of corresponding stable isotope]) was calculated for a metabolite and a stable isotope of the metabolite as measurement object. By comparing the peak area ratio of each test compound solution with that of the control, the inhibition rate (%) of each CYP species for each test compound was calculated from (1−[peak area ratio of each test compound solution]/[peak area ratio of control])×100.
For orientation: Liver microsomes are vesicles of endoplasmic reticulum, rich in cytochrome P450 enzymes.

The target in series [2] is T2, CYP3A4 (Homo sapiens, UniProt P08684).
T2 construct: a human liver microsome solution containing three CYP-specific substrates; from tissue; host or cells: human liver microsomes
The experiment in a line: CYP inhibition test (2): 50% inhibitory concentration from 3 concentrations, CYP3A4. The conditions noted are these: human liver microsome, midazolam substrate, 0.01, 0.03 and 0.1 mmol/L; read-out: 50% inhibitory concentration, 3A4. The protocol:
as §1

The target of series [3] is T3, CYP2D6 (Homo sapiens, UniProt P10635).
T3 construct: a human liver microsome solution containing three CYP-specific substrates; from tissue; host or cells: human liver microsomes
Description: CYP inhibition test (2): 50% inhibitory concentration from 3 concentrations, CYP2D6. Particulars: human liver microsome, bufuralol substrate, 0.01, 0.03 and 0.1 mmol/L; read-out: 50% inhibitory concentration, 2D6. As to the method:
as §1

Structures are written as SMILES. Some results are limits rather than exact numbers.

T2 sequence (P08684 whole entry): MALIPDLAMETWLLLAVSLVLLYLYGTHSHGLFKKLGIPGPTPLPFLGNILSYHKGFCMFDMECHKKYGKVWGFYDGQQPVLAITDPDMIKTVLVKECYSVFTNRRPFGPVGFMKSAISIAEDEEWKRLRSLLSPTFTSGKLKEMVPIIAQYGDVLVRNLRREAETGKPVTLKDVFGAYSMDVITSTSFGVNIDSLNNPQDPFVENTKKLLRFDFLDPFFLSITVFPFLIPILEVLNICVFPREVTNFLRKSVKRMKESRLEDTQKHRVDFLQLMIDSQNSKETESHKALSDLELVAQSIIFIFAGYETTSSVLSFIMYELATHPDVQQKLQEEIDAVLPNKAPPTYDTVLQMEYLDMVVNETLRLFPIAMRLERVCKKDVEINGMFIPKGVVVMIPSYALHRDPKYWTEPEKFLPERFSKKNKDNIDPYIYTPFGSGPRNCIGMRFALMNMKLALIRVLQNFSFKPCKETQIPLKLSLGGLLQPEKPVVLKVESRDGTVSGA
T3 sequence (P10635 whole entry): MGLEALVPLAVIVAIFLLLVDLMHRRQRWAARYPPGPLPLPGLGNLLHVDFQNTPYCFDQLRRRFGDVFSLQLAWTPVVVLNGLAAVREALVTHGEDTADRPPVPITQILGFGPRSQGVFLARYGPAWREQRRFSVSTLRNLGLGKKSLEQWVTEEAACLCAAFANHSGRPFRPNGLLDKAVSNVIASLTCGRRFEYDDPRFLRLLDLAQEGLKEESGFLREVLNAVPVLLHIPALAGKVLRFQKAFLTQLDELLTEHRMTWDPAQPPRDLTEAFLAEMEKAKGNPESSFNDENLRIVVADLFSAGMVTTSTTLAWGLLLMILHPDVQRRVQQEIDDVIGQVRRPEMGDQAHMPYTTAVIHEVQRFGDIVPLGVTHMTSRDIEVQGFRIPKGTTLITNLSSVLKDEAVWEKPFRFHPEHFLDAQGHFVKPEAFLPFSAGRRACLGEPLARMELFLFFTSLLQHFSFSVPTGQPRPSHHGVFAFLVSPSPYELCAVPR
T1 sequence (P11712 whole entry): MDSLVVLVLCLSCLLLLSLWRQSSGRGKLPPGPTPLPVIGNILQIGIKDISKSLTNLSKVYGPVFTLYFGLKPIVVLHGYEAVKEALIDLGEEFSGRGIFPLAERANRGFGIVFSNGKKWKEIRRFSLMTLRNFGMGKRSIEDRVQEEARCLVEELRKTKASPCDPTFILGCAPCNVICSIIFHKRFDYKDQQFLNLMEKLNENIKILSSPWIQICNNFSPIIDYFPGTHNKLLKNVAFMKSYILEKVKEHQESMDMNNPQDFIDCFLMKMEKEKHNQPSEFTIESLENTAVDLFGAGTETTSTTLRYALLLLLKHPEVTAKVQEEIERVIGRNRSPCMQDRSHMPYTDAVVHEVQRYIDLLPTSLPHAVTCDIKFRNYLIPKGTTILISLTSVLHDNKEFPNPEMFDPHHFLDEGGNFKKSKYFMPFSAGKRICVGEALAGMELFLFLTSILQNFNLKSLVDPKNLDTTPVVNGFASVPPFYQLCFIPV

Regarding `C[C@@H]1CN(c2cc(F)c(OCCO)c(Cl)c2)[C@H]2CCCC[C@@H]2N1` [Example 17, 2-(2-chloro-6-fluoro-4-((3R,4aS,8aS)-3-methyloctahydroquinoxalin-1(2H)-yl)phenoxy)ethan-1-ol 1/2fumarate], the IC50 in series [1], in series [2] and in series [3] was over 100 µM each time.
For the molecule `C[C@H]1CN(c2cc(F)c(OCCO)c(Cl)c2)[C@H]2CCCC[C@H]2N1` [Example 18], the figures for the IC50 in series [1], in series [2] and in series [3] were over 100 µM, over 100 µM and 59.1 µM, respectively.
On to `CC1(C)CN(c2ccc(OC(F)(F)CO)cc2)[C@H]2CCCC[C@@H]2N1` [Example 20, 2-(4-((4aS,8aS)-3,3-dimethyloctahydroquinoxalin-1(2H)-yl)phenoxy)-2,2-difluoroethan-1-ol], for which the IC50 was over 100 µM in series [1], 94.9 µM in series [2] and over 100 µM in series [3].
Turning to `CC1(C)CN(c2ccc(OC(F)(F)CO)cc2)[C@@H]2CCCC[C@H]2N1` [Example 21], the IC50 in series [1], in series [2] and in series [3] was over 100 µM each time.
Regarding `COc1cc(N2CC(C)(C)N[C@H]3CCCC[C@@H]32)ccc1OC(F)(F)CO` [Example 26], the IC50 in series [1], in series [2] and in series [3] was over 100 µM throughout.
For the molecule `CC1(C)CN(c2ccc(OCCO)c(Cl)c2)[C@H]2CCCC[C@@H]2N1` [Example 27, 2-(2-chloro-4-((4aS,8aS)-3,3-dimethyloctahydroquinoxalin-1(2H)-yl)phenoxy)ethan-1-ol], the IC50 in series [1], in series [2] and in series [3] was over 100 µM throughout.
For the molecule `CC1(C)CN(c2ccc(OCCO)c(Cl)c2)[C@@H]2CCCC[C@H]2N1` [Example 28], the IC50 in series [1], in series [2] and in series [3] was over 100 µM in each case.
For the molecule `Cc1cc(N2CC(C)(C)N[C@H]3CCCC[C@@H]32)ccc1OC(F)(F)CO` [Example 31], the IC50 in series [1] is over 100 µM; in series [2] it was 62.5 µM; in series [3], over 100 µM.
Consider `Cc1cc(N2CC(C)(C)N[C@@H]3CCCC[C@H]32)ccc1OC(F)(F)CO` [Example 32], for which the IC50 was over 100 µM in series [1], 62.8 µM in series [2] and over 100 µM in series [3].
Regarding `CC1(C)CN(c2cc(F)c(OCCO)c(F)c2)[C@H]2CCCC[C@@H]2N1` [Example 34, 2-(4-((4aS,8aS)-3,3-dimethyloctahydroquinoxalin-1(2H)-yl)-2,6-difluorophenoxy)ethan-1-ol], the IC50 in series [1], in series [2] and in series [3] was over 100 µM in each case.
Take `CC1(C)CN(c2cc(F)c(OCCO)c(F)c2)[C@@H]2CCCC[C@H]2N1` [Example 35]: the IC50 in series [1] was over 100 µM; in series [2], over 100 µM; in series [3] it was 55.5 µM.
For the molecule `CC1(C)CN(c2cc(F)c(OCCO)c(F)c2)[C@H]2CCCC[C@H]2N1` [Example 36], in series [1] (human liver microsomes, pH 7.4, probe diclofenac (0.005 mmol/L)), the IC50 at 10 min was 100 µM. Moreover, the IC50 in series [2] was over 100 µM; in series [3], 87.6 µM.
For `CN1[C@H]2CCCC[C@@H]2N(c2ccc(OC(F)(F)CO)cc2)CC1(C)C` [Example 37, 2,2-difluoro-2-(4-((4aS,8aS)-3,3,4-trimethyloctahydroquinoxalin-1(2H)-yl)phenoxy)ethan-1-ol], the IC50 in series [1] was over 100 µM; in series [2] it was 86.7 µM; in series [3], over 100 µM.
